Data taken from ChEMBL document CHEMBL1687855, “Nardosinane sesquiterpenoids from the Formosan soft coral Lemnalia flava” (2011).
pEC50: −log10 of the molar value. Active and inactive are the calls of the source. No cut-off for these calls is given here.

Tests used:
MCF7 = test: Cytotoxicity against human MCF7 cells; type: functional, cell-based
WiDr = test: Cytotoxicity against human WiDr cells; type: functional, cell-based
HEp-2 = test: Cytotoxicity against human Hep2 cells; type: functional, cell-based
Daoy = test: Cytotoxicity against human DaOY cells; type: functional, cell-based
CCRF-CEM = test: Cytotoxicity against human CCRF-CEM cells; type: functional, cell-based
DLD-1 = test: Cytotoxicity against human DLD1 cells; type: functional, cell-based
HL-60 = test: Cytotoxicity against human HL60 cells; type: functional, cell-based
P388D1 = test: Cytotoxicity against […] cells; type: functional, cell-based; conditions: Mus musculus
SH-SY5Y [1] = test: Neuroprotective activity against 1 hr compound pretreated human SH-SY5Y cells assessed as reduction in 6-OHDA induced damage at 10 '-4 to 10 uM by MTT assay; type: functional; set-up: scale not given: the % may be the effect or the level left
RAW264.7 [2] = test: Antiinflammatory activity in mouse RAW264.7 cells assessed as inhibition of LPS-induced up-regulation of pro-inflammatory protein iNOS by Western blot analysis; type: functional
RAW264.7 [3] = test: Antiinflammatory activity in mouse RAW264.7 cells assessed as inhibition of LPS-induced up-regulation of pro-inflammatory protein COX-2 by Western blot analysis; type: functional
SH-SY5Y [4] = test: Neuroprotective activity against 1 hr compound pretreated human SH-SY5Y cells assessed as reduction in 6-OHDA induced damage at 10^-4 uM by MTT assay; type: functional; set-up: scale not given: the % may be the effect or the level left
SH-SY5Y [5] = test: Neuroprotective activity against 1 hr compound pretreated human SH-SY5Y cells assessed as reduction in 6-OHDA induced damage at 10^-3 uM by MTT assay; type: functional; set-up: scale not given: the % may be the effect or the level left
SH-SY5Y [6] = test: Neuroprotective activity against 1 hr compound pretreated human SH-SY5Y cells assessed as reduction in 6-OHDA induced damage at 10^-2 uM by MTT assay; type: functional; set-up: scale not given: the % may be the effect or the level left
SH-SY5Y [7] = test: Neuroprotective activity against 1 hr compound pretreated human SH-SY5Y cells assessed as reduction in 6-OHDA induced damage at 10^-1 uM by MTT assay; type: functional; set-up: scale not given: the % may be the effect or the level left
SH-SY5Y [8] = test: Neuroprotective activity against 1 hr compound pretreated human SH-SY5Y cells assessed as reduction in 6-OHDA induced damage at 1 uM by MTT assay; type: functional; set-up: scale not given: the % may be the effect or the level left
SH-SY5Y [9] = test: Neuroprotective activity against 1 hr compound pretreated human SH-SY5Y cells assessed as reduction in 6-OHDA induced damage at 10 uM by MTT assay; type: functional; set-up: scale not given: the % may be the effect or the level left
[10] = read-out: ED50 (the source's name)

pEC50 (RAW264.7 [2]; [10])	pEC50 (RAW264.7 [3]; [10])	Structure (SMILES)	Activity (MCF7)	Activity (WiDr)	Activity (HEp-2)	Activity (Daoy)	Activity (CCRF-CEM)	Activity (DLD-1)	Activity (HL-60)	Activity (P388D1)	Activity (SH-SY5Y [1])	Activity (RAW264.7 [2])	Activity (RAW264.7 [3])	Activity (SH-SY5Y [4])	Activity (SH-SY5Y [5])	Activity (SH-SY5Y [6])	Activity (SH-SY5Y [7])	Activity (SH-SY5Y [8])	Activity (SH-SY5Y [9])
		CO[C@H]1O[C@@]23C=CC[C@H](C)[C@@]2(C)[C@@H](C(=O)CC3)[C@@H]1C [FLAVALIN C]	inactive	inactive	inactive	inactive	inactive	inactive	inactive	inactive	<20%								
4.69	4.58	C[C@@H]1[C@@H]2O[C@H]3CC[C@@]4(C=CC[C@H](C)[C@@]4(C)[C@H]13)O2 [FLAVALIN A]	inactive	inactive	inactive	inactive	inactive	inactive	inactive	inactive		Dose-dependent effect	Dose-dependent effect	16.9%	5.84%	30.8%	25.3%	35.1%	20.9%
		CO[C@@H]1O[C@@]23C=CC[C@H](C)[C@@]2(C)[C@@H](C(=O)CC3)[C@@H]1C [FLAVALIN D]	inactive	inactive	inactive	inactive	inactive	inactive	inactive	inactive	<20%								
		C[C@@H]1[C@@H](O)O[C@@]23C=CC[C@H](C)[C@@]2(C)[C@H]1C(=O)CC3 [FLAVALIN B]	inactive	inactive	inactive	inactive	inactive	inactive	inactive	inactive				29.6%	32.6%	30.2%	24.3%	21.3%	30.1%
